How the values were obtained:
[1] = test system: SK-N-AS and monocytes; experiment: Tumorsphere cluster formation in low attachment plates; type: cell-based, human; details: 10 μg/mL etanercept, 24 hours, ultra low attachment plates
[2] = test system: SK-N-AS-luc/monocyte xenografts; experiment: SK-N-AS-luc/monocyte subcutaneous xenograft in NSG mice; type: in vivo, mouse
Protocol: Luciferase-labeled NB and freshly isolated human monocytes were embedded in Matrigel and injected into the subcutaneous right flank of 8-week female NSG mice. […] (FIG. 9A) Tumor growth was tracked indirectly through luminescence imaging using IVIS Imaging system. (FIG. 9B) Average tumor luminescence of each group over time. After 3 weeks, mice were sacrificed and the tumor size was analyzed directly by weight. The bottom line is NB+Mono+FcTNFR and the top line is NB+Mono+IgG. (FIG. 9C) Representative image of 5 tumors from each group. (FIG. 9D) Tumor weight by group after Log10 transformation of weight (in mg). * p<0.05, ** p<0.01;
(FIG. 27A) SK-N-AS-luc and freshly isolated human monocytes were embedded in matrigel and injected into the subcutaneous right flank of eight-week female NSG mice. […] Representative luminescence images (Ctrl n=7, Etan n=13) measured in radiance (photons/second/cm2/steradian). (FIG. 27B) Graphical representation of total luminescence per tumor from (A) over time. (FIG. 27C) Mean tumor total luminescence over time, two-way ANOVA with Bonferroni multiple comparisons test (Ctrl n=7, Etan n=13); NB/Mon+Ctrl line is on top. (FIG. 27D) Representative tumors for each group following sacrifice at day 21. * p<0.05; […]

[3] = test system: murine CD31; experiment: Murine CD31 immunofluorescence of xenograft tumors (angiogenesis); type: in vivo, mouse; details: CHLA-255-luc/monocyte tumors
Excerpt: (FIG. 17A) Tumors recovered from mice in FIG. 16 were snap frozen in OTC media, thin sectioned, and stained for murine CD31 expression (red) and DAPI counterstain (blue). Results shown are representative images from five fields of view (FOVs) per tumor, with five tumors per group. Scale bar 50 μm. (FIG. 17B) Total number of CD31+ regions per FOV with box and whisker plot showing quartiles±range (Ctrl n=15, Etan n=25). (FIG. 17C) Size of each CD31+ area quantified per FOV; shown is median CD31+ area per FOV with box and whisker plot showing quartiles±range (Ctrl n=15, Etan n=25) (FIG. 17D) Longest distance across each CD31+ area (Max Feret distance) per FOV; shown is median distance per FOV with box and whisker plot showing quartiles±range (Ctrl n=15, Etan n=25). (FIG. 17E) Eukaryotic mRNA-seq was performed on tumor samples, and mouse transcripts were excluded from analysis by XenoFilterR program. Differentially regulated genes were identified using two-fold expression difference and adjusted P value<0.05 as cutoffs.
Tumors from in vivo experiments were snap-frozen in OTC Media (Tissue-Tek, VWR) and cryo-sectioned into 5 μm thin sections (Texas Children's Hospital Histology Core, Houston, Tex.). Samples were fixed and permeabilized in ice-cold acetone for 10 minutes at −20 C and blocked in TBS containing 5% normal goat serum (CST) and 1% BSA (Sigma) for 2 hours at RT. Rat anti-mouse CD31 primary antibody (Invitrogen, clone 390) was diluted 1:10 in staining buffer (TBS, 1% NGS, 1% BSA) overnight at 4 C. […] Slides were counterstained with 1 μg/mL DAPI (BD Biosciences) for five minutes and mounted with fluorescence mounting media (Fluoromount G, Invitrogen). […] Images were processed and analyzed using FIJI/ImageJ software (NIH). To quantify CD31+ staining, images were thresholded (default, 1800 MIN, Infinity MAX), converted to binary, and analyzed using the FIJI/ImageJ “Analyze Particle” function excluding regions smaller than 25 μm2. […]

[4] = test system: CHLA-255 monolayer and monocytes; experiment: Adherence of CD14+ monocytes to NB monolayer; type: cell-based, human; details: CHLA-255, 10 μg/mL etanercept, four days
Protocol: Cultures were imaged at 10× magnification using Nikon DS-Fi1/Elements Software. Scale bar 50 μm. (FIG. 26B) CHLA-255 was grown to 25% confluence in 12-well tissue culture plates and overlaid with freshly isolated human monocytes. […] Non-adherent cells were gently washed with PBS before mechanical dissociation to release adherent cells. Adherent CD14+ monocytes were quantified relative to NB from samples run in triplicate. **** p<0.0001;

[5] = test system: CHLA-255-luc/monocyte xenografts; experiment: CHLA-255-luc/monocyte subcutaneous xenograft in NSG mice; type: in vivo, mouse
Excerpt: (FIG. 16A) In vivo subcutaneous xenograft model. CHLA-255-luc and freshly isolated human monocytes were embedded in Matrigel and injected into the subcutaneous right flank of eight-week female NSG mice. […] (FIG. 16B) Luminescence readings for each mouse (n=10/group) measured in radiance (photons/second/cm2/steradian). (FIG. 16C) Graphical representation of total luminescence per tumor from (FIG. 16B) over time. (FIG. 16D) Mean tumor luminescence over time, two-way ANOVA with Bonferroni multiple comparisons test (n=10 per group). The top line is NB/Mon+Ctrl. (FIG. 16E) Representative tumors for each group following sacrifice at day 21. ** p<0.01;
Six-week old female NOD/SCID/IL-2Ry-null (NSG) mice were purchased from The Jackson Laboratory and maintained at the Baylor College of Medicine (BCM) animal care facility. At eight-weeks of age, mice were injected in the subcutaneous right flank with either 1×106 CHLA-255-luc (or SK-N-AS-luc) or a combination of 1×106 CHLA-255-luc and 1×10^6 human monocytes (or SK-N-AS-luc/monocyte) embedded in growth factor-reduced Matrigel (Corning) as previously described (54). […] Tumor growth was measured indirectly by weekly bioluminescent imaging (Small Animal Imaging Core Facility, Texas Children's Hospital). After three weeks, mice were euthanized and tumors were saved for IHC (see Tumor IHC) and RNA-seq (see RNA Analysis).

[6] = test system: cytokines/chemokines in CHLA-255-monocyte co-cultures; experiment: Multiplex Luminex cytokine array on co-culture supernatants; type: cell-based, human; details: CHLA-255 + monocytes, 10 μg/mL etanercept, 24 hours
[7] = 5 mg/kg (100 μg) i.p. bi-weekly, vs IgG control

etanercept
association of NB/monocytes into tumorsphere clusters [1]: blocking the ability of NB/monocytes to associate into tumorsphere clusters | reduction of tumor growth (luminescence) [2, 7]: 30% | growth of tumors ([2]; SK-N-AS + monocytes in Matrigel, 100 μg bi-weekly, vs IgG control (FIG. 9)): significantly decreased the growth of tumors | vessel formation by CD31 immunofluorescence ([3]; vs IgG control): failed to form distinct vessels | average area of CD31+ regions per FOV ([3]; vs control): significantly smaller | vessel length (maximum linear distance across CD31+ regions) ([3]; vs control): significantly shorter | adherence of CD14+ monocytes to NB monolayer [4]: decreased the adherence | reduction of tumor growth (luminescence) [5, 7]: 65% | macroscopic blood vessel development of treated tumors ([5]; etanercept bi-weekly, vs control tumors): appeared to lack blood vessel development | induction/upregulation of G-CSF, GM-CSF, IL-1α, IL-1β, IL-6, IL-10, IL-12-p40, IP-10, MIP-1β [6]: completely reversed the induction/upregulation of all nine cytokines/chemokines

From patent US20230103554A1, “TNFa SIGNALING [sequence] TUMOR-PROMOTING INFLAMMATION THAT CAN BE TARGETED TO THERAPY” (Baylor College of Medicine, priority 2020, published 2023)
